From US9675072B2, “Tetrazolinone compound and application of same” (SUMITOMO CHEMICAL COMPANY, LIMITED, priority 2013, dated 2017)

Assays:
Format in all cases: in vivo
[1] = system: wheat leaf blotch fungus (Septoria tritici); test: Wheat leaf blotch control test, foliage spray on wheat; conditions: Test Example 11; 200 ppm foliage spray; wheat (APOGEE); inoculated 4 days after spraying
[2] = system: rice blast fungus (Magnaporthe grisea); conditions: Test Example 7; 200 ppm foliage spray; rice (NIHONBARE); 6 days in contact with infected seedlings
[3] = system: barley net blotch fungus (Pyrenophora teres); test: Barley net blotch control test, foliage spray on barley; conditions: barley (MIKAMO GOLDEN), inoculated 2 days after spraying
Description: (§1) The control effect was evaluated by visually observing the area of lesion spots on each of test plants at the time of investigation, and comparing the area of lesion spots on a plant treated with the present control agent with that on an untreated plant. The untreated plant is a plant tested under the same conditions as in Test Examples, except that foliage application of a diluted solution of a formulation containing the present compound with water is not performed.
Each of plastic pots was filled with sandy loam and barley (cultivar: MIKAMO GOLDEN) was sowed and grown in a greenhouse for 7 days. Each of the present compounds 1 to 8, 10 to 12, and 14 was diluted with water to adjust to a predetermined concentration of 500 ppm. The obtained diluted solution was sprayed over stems and leaves of the barley so that it sufficiently adhered to the surface of the leaves of the barley. After spraying, the plant was air-dried. After 2 days, an aqueous suspension containing spores of barley net blotch fungus (Pyrenophora teres) was sprayed to inoculate the spores. After completion of the inoculation, the plant was left to stand for 3 days in a greenhouse at 23° C. in the daytime and 20° C. at night under high humidity condition and cultivated in a greenhouse for 7 days, and then the area of lesion spots was investigated. […]

[4] = system: cucumber powdery mildew fungus (Sphaerotheca fuliginea, a QoI-resistant strain, cytochrome b position 143 glycine to alanine); test: Cucumber powdery mildew control test, foliage spray on cucumber; conditions: Test Example 6, 500 ppm foliage spray, cucumber (SAGAMI HANJIRO), 8 days after inoculation
[5] = system: wheat rust fungus (Puccinia recondita); test: Wheat rust control test, foliage spray on wheat; conditions: Test Example 8; 200 ppm foliage spray; wheat (SHIROGANE); inoculated 5 days after spraying
Description: as §1
Each of plastic pots was filled with sandy loam and wheat (cultivar: SHIROGANE) was sowed and grown in a greenhouse for 9 days. Each of the present compounds 1 to 5, 11, and 1 was diluted with water to adjust to a predetermined concentration of 500 ppm. The obtained diluted solution was sprayed over stems and leaves of the wheat so that they sufficiently adhered to the surface of the leaves of the wheat. After spraying, the plant was air-dried and cultivated at 20° C. for 5 days under illumination, and then inoculated by sprinkling with spores of wheat rust fungus (Puccinia recondita). After the inoculation, the plant was left to stand at 23° C. for one day under dark and high humidity condition, and cultivated under illumination at 20° C. for 8 days, and then the area of lesion spots was investigated. […]

COc1c(C(F)F)c(-c2ccc(OCc3ccccc3-n3nnn(C)c3=O)c(C)c2)nn1C [compound 9]
≤ 30%: area of lesion spots on treated plant relative to untreated plant [1]

COc1cc(-c2cc(C)c(OCc3ccccc3-n3nnn(C)c3=O)cc2C)nn1C [compound 14]
≤ 30%: lesion area on treated plant with respect to the lesion area on the non-treated plant [2] | area of lesion spots on treated plant relative to untreated plant ([3]; Test Example 3, 500 ppm foliage spray) | area of lesion spots on treated plant relative to untreated plant ([3]; Test Example 9, 200 ppm foliage spray) | area of lesion spots on treated plant relative to untreated plant [4] | area of lesion spots on treated plant relative to untreated plant [5]
